Source: ChEMBL document CHEMBL4308841, “Synthesis, in vitro antiproliferative activity, and kinase inhibitory effects of pyrazole-containing diarylureas and diarylamides” (Eur J Med Chem, 2018)

Key:
TK-10 [1] = assay: Growth inhibition of human TK10 cells incubated for 48 hrs by sulforhodamine B assay; type: functional, cell-based; details: TK-10, 48 h
[2] = biological target: Platelet-derived growth factor receptor beta (Homo sapiens) (UniProt P09619); assay: Inhibition of human PDGFRb at 10 uM using poly[Glu:Tyr] (4:1) as substrate after 40 mins in presence of [gamma33P]ATP by scintillation counting method relative to control
HCT-15 = assay: Growth inhibition of human HCT15 cells assessed as cell growth at 0.01 uM incubated for 48 hrs by sulforhodamine B assay relative to control; type: functional; details: HCT-15, 48 h, read-out: Activity
RAW264.7 = assay: Cytotoxicity against mouse RAW264.7 cells by MTT assay; type: cell-based
DU-145 = assay: Growth inhibition of human DU145 cells assessed as cell growth at 0.01 uM incubated for 48 hrs by sulforhodamine B assay relative to control; type: functional; details: DU-145, 48 h, read-out: Activity
Hs-578T = assay: Growth inhibition of human Hs578T cells assessed as cell growth at 100 uM incubated for 48 hrs by sulforhodamine B assay relative to control; type: functional; details: read-out: Activity
[3] = biological target: Receptor tyrosine-protein kinase erbB-4 (Homo sapiens) (UniProt Q15303); assay: Inhibition of human ERBB4 at 10 uM using poly[Glu:Tyr] (4:1) as substrate after 40 mins in presence of [gamma33P]ATP by scintillation counting method relative to control
Sequence of Receptor tyrosine-protein kinase erbB-4 (Homo sapiens) (Q15303 whole entry): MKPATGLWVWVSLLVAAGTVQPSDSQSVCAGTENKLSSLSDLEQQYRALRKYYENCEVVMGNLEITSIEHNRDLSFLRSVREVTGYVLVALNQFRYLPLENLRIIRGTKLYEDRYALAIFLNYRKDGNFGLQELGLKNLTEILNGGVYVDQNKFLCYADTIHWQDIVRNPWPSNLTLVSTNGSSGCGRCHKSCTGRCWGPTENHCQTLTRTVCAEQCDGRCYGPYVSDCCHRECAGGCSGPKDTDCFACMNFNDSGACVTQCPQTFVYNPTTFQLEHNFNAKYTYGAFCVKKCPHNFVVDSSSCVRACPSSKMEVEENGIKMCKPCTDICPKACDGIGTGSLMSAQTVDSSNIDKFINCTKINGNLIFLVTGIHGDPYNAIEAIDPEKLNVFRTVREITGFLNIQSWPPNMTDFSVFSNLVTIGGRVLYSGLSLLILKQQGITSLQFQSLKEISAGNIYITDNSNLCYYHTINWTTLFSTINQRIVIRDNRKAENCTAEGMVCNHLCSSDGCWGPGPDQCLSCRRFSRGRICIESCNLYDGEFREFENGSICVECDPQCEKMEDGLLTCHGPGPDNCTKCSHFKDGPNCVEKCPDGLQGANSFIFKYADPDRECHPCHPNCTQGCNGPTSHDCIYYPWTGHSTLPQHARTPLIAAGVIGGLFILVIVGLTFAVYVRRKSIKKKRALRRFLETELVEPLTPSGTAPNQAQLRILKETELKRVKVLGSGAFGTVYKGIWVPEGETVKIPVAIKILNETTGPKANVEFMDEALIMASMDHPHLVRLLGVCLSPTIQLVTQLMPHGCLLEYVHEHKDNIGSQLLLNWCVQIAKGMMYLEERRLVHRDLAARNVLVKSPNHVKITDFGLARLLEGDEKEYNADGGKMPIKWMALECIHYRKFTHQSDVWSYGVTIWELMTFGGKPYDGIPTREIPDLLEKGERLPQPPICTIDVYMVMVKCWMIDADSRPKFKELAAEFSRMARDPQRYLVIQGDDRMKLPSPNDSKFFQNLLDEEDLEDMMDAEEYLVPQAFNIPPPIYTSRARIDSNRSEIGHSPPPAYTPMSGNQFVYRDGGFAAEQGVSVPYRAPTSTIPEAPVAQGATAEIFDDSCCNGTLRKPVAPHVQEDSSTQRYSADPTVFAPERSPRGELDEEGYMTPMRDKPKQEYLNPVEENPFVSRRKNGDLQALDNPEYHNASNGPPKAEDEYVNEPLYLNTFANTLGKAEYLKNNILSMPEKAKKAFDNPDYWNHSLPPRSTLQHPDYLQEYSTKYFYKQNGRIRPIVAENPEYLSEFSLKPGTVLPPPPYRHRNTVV

NCI-H522 = assay: Growth inhibition of human NCI-H522 cells assessed as cell growth at 0.01 uM incubated for 48 hrs by sulforhodamine B assay relative to control; type: functional; details: NCI-H522, 48 h, read-out: Activity
[4] = biological target: RAC-alpha serine/threonine-protein kinase (Homo sapiens) (UniProt P31749); assay: Inhibition of human AKT1 at 10 uM using KGSGSGRPRTSSFAEG as substrate after 40 mins in presence of [gamma33P]ATP by scintillation counting method relative to control
Sequence of RAC-alpha serine/threonine-protein kinase (Homo sapiens) (P31749 whole entry): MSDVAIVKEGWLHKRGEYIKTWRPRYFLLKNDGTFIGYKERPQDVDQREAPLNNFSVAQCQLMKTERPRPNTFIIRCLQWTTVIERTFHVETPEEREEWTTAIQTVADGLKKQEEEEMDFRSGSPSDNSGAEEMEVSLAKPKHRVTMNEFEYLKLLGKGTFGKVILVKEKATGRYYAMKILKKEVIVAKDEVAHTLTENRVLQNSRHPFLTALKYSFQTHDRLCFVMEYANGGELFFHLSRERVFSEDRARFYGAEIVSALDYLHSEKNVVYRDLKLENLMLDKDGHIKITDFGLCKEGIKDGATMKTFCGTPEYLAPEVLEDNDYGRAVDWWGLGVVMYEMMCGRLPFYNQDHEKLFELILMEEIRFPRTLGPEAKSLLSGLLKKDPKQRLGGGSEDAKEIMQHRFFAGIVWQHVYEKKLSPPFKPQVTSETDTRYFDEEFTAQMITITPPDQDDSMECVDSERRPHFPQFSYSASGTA

TK-10 [5] = assay: Growth inhibition of human TK10 cells assessed as cell growth at 100 uM incubated for 48 hrs by sulforhodamine B assay relative to control; type: functional; details: TK-10, 48 h, read-out: Activity
IGROV-1 = assay: Growth inhibition of human IGROV1 cells assessed as cell growth at 1 uM incubated for 48 hrs by sulforhodamine B assay relative to control; type: functional; details: IGROV-1, 48 h, read-out: Activity
RPMI-8226 = assay: Induction of apoptosis in human RPMI8226 cells assessed as increase in caspase 3/7 level at 10 uM relative to control; type: functional
[6] = biological target: PI3-kinase p110-alpha/p85-alpha (Homo sapiens) (UniProt P27986+P42336); assay: Inhibition of human PI3K p110a/p85a at 10 uM using PI(4,5)P2:PS as substrate after 40 mins in presence of [gamma33P]ATP by scintillation counting method relative to control; type: protein-complex assay
HOP-92 [7] = assay: Growth inhibition of human HOP92 cells assessed as cell growth at 0.01 uM incubated for 48 hrs by sulforhodamine B assay relative to control; type: functional; details: HOP-92, 48 h, read-out: Activity
HOP-62 = assay: Growth inhibition of human HOP62 cells assessed as cell growth at 1 uM incubated for 48 hrs by sulforhodamine B assay relative to control; type: functional; details: HOP-62, 48 h, read-out: Activity
A549 = assay: Growth inhibition of human A549/ATCC cells assessed as cell growth at 1 uM incubated for 48 hrs by sulforhodamine B assay relative to control; type: functional; details: A549, 48 h, read-out: Activity
[8] = biological target: Serine/threonine-protein kinase A-Raf (Homo sapiens) (UniProt P10398); assay: Inhibition of human ARAF at 10 uM using MEK1 (K97R) as substrate after 40 mins in presence of [gamma33P]ATP by scintillation counting method relative to control
Sequence of Serine/threonine-protein kinase A-Raf (Homo sapiens) (P10398 whole entry): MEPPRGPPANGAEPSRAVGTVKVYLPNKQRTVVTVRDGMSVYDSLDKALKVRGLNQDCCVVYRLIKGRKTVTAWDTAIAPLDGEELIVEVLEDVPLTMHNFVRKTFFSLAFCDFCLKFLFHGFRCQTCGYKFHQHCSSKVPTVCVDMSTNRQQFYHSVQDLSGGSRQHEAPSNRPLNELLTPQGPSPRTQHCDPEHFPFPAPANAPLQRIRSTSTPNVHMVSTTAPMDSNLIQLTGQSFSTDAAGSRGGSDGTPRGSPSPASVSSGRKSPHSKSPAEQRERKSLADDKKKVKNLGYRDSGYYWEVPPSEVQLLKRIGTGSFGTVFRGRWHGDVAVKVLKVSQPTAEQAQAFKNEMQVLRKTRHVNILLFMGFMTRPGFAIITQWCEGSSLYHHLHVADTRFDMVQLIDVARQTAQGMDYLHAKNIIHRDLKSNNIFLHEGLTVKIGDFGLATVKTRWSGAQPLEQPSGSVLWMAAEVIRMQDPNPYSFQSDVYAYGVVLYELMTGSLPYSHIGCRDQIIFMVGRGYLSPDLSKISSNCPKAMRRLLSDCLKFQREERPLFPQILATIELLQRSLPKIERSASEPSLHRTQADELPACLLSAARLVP

[9] = biological target: Tyrosine-protein kinase JAK2 (Homo sapiens) (UniProt O60674); assay: Inhibition of human JAK2 at 10 uM using poly[Glu:Tyr] (4:1) as substrate after 40 mins in presence of [gamma33P]ATP by scintillation counting method relative to control
Sequence of Tyrosine-protein kinase JAK2 (Homo sapiens) (O60674 whole entry): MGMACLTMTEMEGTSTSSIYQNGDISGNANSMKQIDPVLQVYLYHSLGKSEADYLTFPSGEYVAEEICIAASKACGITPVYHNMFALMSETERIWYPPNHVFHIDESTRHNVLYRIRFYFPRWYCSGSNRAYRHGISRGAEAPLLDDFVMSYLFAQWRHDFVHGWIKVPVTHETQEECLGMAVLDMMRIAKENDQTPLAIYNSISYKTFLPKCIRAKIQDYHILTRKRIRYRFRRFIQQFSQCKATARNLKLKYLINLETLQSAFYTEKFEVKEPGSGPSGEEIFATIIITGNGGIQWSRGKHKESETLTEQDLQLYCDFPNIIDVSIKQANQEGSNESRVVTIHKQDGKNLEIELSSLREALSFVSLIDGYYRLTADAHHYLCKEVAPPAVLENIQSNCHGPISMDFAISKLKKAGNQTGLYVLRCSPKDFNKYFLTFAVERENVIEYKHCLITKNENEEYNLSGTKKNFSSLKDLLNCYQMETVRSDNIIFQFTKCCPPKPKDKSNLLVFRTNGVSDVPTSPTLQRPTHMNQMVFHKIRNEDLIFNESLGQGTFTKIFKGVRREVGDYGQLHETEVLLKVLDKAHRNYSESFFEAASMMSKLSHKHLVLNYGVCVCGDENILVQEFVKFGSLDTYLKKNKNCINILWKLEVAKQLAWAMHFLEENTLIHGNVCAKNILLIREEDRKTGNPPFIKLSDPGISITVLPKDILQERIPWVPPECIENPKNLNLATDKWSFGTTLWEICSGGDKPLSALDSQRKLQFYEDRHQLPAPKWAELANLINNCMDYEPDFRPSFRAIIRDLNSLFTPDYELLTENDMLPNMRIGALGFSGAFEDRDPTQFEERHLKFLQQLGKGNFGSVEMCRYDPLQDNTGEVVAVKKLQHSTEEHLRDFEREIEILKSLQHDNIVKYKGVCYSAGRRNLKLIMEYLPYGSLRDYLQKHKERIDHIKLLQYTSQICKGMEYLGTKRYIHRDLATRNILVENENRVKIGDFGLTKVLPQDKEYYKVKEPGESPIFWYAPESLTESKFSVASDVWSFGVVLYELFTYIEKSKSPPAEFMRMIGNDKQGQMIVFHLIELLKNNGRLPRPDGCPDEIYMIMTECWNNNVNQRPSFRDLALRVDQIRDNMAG

NCI/ADR-RES = assay: Growth inhibition of human NCI/ADR-RES cells incubated for 48 hrs by sulforhodamine B assay; type: functional, cell-based
COLO 205 = assay: Growth inhibition of human COLO205 cells incubated for 48 hrs by sulforhodamine B assay; type: functional, cell-based; details: COLO 205, 48 h
HOP-92 [10] = assay: Growth inhibition of human HOP92 cells incubated for 48 hrs by sulforhodamine B assay; type: functional, cell-based; details: HOP-92, 48 h
[11] = biological target: Hepatocyte growth factor receptor (Homo sapiens) (UniProt P08581); assay: Inhibition of human c-MET at 10 uM using KKKSPGEYVNIEFG as substrate after 40 mins in presence of [gamma33P]ATP by scintillation counting method relative to control
UACC-257 = assay: Growth inhibition of human UACC257 cells incubated for 48 hrs by sulforhodamine B assay; type: functional, cell-based; details: UACC-257, 48 h
HOP-92 [12] = assay: Growth inhibition of human HOP92 cells assessed as cell growth at 100 uM incubated for 48 hrs by sulforhodamine B assay relative to control; type: functional; details: HOP-92, 48 h, read-out: Activity
[13] = biological target: Epidermal growth factor receptor (Homo sapiens) (UniProt P00533); assay: Inhibition of human EGFR at 10 uM using poly[Glu:Tyr] (4:1) as substrate after 40 mins in presence of [gamma33P]ATP by scintillation counting method relative to control
Sequence of Epidermal growth factor receptor (Homo sapiens) (P00533 whole entry): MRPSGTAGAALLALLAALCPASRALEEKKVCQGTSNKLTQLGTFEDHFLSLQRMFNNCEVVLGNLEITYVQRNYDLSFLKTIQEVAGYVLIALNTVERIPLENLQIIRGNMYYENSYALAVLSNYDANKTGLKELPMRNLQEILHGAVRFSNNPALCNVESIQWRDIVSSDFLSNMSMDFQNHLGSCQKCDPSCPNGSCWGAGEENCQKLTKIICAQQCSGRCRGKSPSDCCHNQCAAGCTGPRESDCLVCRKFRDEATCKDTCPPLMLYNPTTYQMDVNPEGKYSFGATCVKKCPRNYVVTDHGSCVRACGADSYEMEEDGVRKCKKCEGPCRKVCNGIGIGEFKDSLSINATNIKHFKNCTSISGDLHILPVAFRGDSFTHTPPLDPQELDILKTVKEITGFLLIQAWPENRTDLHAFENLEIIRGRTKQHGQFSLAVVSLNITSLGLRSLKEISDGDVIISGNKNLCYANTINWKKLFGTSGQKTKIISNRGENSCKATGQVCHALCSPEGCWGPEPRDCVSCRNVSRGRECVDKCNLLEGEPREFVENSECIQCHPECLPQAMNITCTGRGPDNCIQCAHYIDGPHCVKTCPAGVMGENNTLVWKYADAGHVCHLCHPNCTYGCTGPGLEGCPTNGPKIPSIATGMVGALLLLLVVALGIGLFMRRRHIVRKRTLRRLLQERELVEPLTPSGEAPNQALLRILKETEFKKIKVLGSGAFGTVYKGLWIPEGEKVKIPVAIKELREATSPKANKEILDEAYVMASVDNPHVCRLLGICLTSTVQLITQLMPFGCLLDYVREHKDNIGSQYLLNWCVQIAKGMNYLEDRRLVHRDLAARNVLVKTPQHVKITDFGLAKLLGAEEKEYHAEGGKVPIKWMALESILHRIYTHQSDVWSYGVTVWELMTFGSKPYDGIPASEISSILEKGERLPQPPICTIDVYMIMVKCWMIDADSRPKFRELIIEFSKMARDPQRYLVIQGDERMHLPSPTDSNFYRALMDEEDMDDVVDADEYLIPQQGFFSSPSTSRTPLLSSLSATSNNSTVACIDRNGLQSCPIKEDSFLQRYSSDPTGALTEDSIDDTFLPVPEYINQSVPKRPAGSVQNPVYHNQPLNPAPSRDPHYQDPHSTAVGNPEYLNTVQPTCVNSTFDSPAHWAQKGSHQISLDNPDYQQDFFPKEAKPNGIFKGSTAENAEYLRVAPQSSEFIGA

[14] = read-out: LC50 (the source's name)
[15] = read-out: pLC50 (the source's name) (converted)

`COc1cc(Cl)cc(-c2nn(-c3cccc(NC(=O)Nc4cc(C(F)(F)F)cc(C(F)(F)F)c4)c3)cc2-c2ccncc2)c1` gave an IC50 (TK-10 [1]) of 680 nM, a GI50 (TK-10 [1]; read-out: GI50) of 654 nM and a CC50 (TK-10 [1]; [14]) of 42.5 nM. For the same compound, the TGI (TK-10 [1]; read-out: TGI) was 14600 nM, the GI50 (TK-10 [1]; read-out: pGI50 (converted)) was 708 nM and the CC50 (TK-10 [1]; [15]) was 42700 nM. For the same compound, the TGI (TK-10 [1]; read-out: pTGI (converted)) was 14800 nM, the inhibition [2] was -9.26% and the growth at 0.01 µM (HCT-15) was 93%. For the same compound, the IC50 (RAW264.7) was > 100000 nM, the growth at 0.01 µM (DU-145) was 104% and the growth at 100 µM (Hs-578T) was -25%. It also gave an inhibition [3] of 0.9%, a growth at 0.01 µM (NCI-H522) of 93% and an inhibition [4] of -5.92%. For the same compound, the growth at 100 µM (TK-10 [5]) was -91%, the growth at 1 µM (IGROV-1) was 33% and the “fold change (FC)” value (RPMI-8226) was 2.79. The inhibition [6] was 16.8%, the growth at 0.01 µM (HOP-92 [7]) was 93% and the growth at 1 µM (HOP-62) was 40%. The growth at 1 µM (A549) was 15%, the inhibition [8] was 49.2% and the inhibition [9] was -2.88%. For the same compound, the IC50 (NCI/ADR-RES) was 820 nM, the GI50 (NCI/ADR-RES; read-out: GI50) was 815 nM and the CC50 (NCI/ADR-RES; [14]) was > 100000 nM. The TGI (NCI/ADR-RES; read-out: TGI) was 9980 nM, the GI50 (NCI/ADR-RES; read-out: pGI50 (converted)) was 813 nM and the CC50 (NCI/ADR-RES; [15]) was > 100000 nM. For the same compound, the TGI (NCI/ADR-RES; read-out: pTGI (converted)) was 10000 nM, the IC50 (COLO 205) was 450 nM and the GI50 (COLO 205; read-out: GI50) was 448 nM. The TGI (COLO 205; read-out: TGI) was 1880 nM, the GI50 (COLO 205; read-out: pGI50 (converted)) was 447 nM and the CC50 (COLO 205; [15]) was 6920 nM. The TGI (COLO 205; read-out: pTGI (converted)) was 1860 nM, the IC50 (HOP-92 [10]) was 230 nM and the GI50 (HOP-92 [10]; read-out: GI50) was 228 nM. It also gave a CC50 (HOP-92 [10]; [14]) of 2010 nM, a TGI (HOP-92 [10]; read-out: TGI) of 780 nM and a GI50 (HOP-92 [10]; read-out: pGI50 (converted)) of 229 nM. The CC50 (HOP-92 [10]; [15]) was 20000 nM, the TGI (HOP-92 [10]; read-out: pTGI (converted)) was 776 nM and the inhibition [11] was 5.66%. For the same compound, the IC50 (UACC-257) was 410 nM, the GI50 (UACC-257; read-out: GI50) was 412 nM and the CC50 (UACC-257; [14]) was 70 nM. For the same compound, the TGI (UACC-257; read-out: TGI) was 1840 nM, the GI50 (UACC-257; read-out: pGI50 (converted)) was 407 nM and the CC50 (UACC-257; [15]) was 7080 nM. For the same compound, the TGI (UACC-257; read-out: pTGI (converted)) was 1860 nM, the growth at 100 µM (HOP-92 [12]) was -77% and the inhibition [13] was -7.47%.
